Assay results reported in patent US12551478B2, “Quinoline derivative having indoleamine-2,3-dioxygenase inhibitory activity” (SHENZHEN CHIPSCREEN BIOSCIENCES CO., LTD., priority 2018, dated 2026).
pEC50: −log10 of the molar value. Where “and” joins values, the source holds several entries; their conditions need not be identical. Equal entries are not always repeated.

What was measured:
CT-26 tumor [1] = test: Efficacy experiment on Balb/c mouse CT-26 tumor model; format: in vivo; conditions: for average tumor weight: Example 93, FIG. 6: tumors stripped after last administration on 17th day, vehicle group 2.7 g; for Relative tumor inhibition rate (%): Example 93: Chidamide 25 mg/kg, Example 3 20 mg/kg, intragastric once per day, 17 days, tumor volume vs vehicle control
Protocol: CT-26 cells were subjected to multiplication culture and kept in a logarithmic growth state. After the number of cells met the requirement, the cells were digested with trypsin and collected, washed sufficiently with a large amount of PBS twice to remove trypsin and serum components, centrifuged at room temperature and 800 rpm for 10 minutes, and the supernatant was discarded. The cells were resuspended in FBS-free DMEM medium and adjusted to reach a cell concentration of 3×10^7/mL.
Under aseptic condition, the cell suspension was injected into subcutaneous of back of […] at a dose of 100 μL/needle, one injection per Balb/c mouse. During the injection, 1 mL disposable medical syringe was used to ensure that the position and direction for inserting needle to each mouse was basically the same.
Eight days after cell inoculation, the tumor grew to an average volume of about 100 mm^3. The tumor-bearing mice were randomly divided into four groups (9 mice in each group), namely the vehicle control group, the chidamide group (25 mg/kg, intragastric administration, once per day), Example 3 group (20 mg/kg, intragastric administration, once per day), and the combination of Chidamide and Example 3 group, and then the mice were raised in cages after labeling, the mice was administered according to groups and observed for tumor formation every day. The body weight of each mouse was weighted before administration, and the dose was calculated according to per kilogram of body weight, that was, 10 μL of CMC-Na solution per gram of body weight for the vehicle control group, 10 μL of 2.5 mg/mL Chidamide-CMC-Na suspension per gram of body weight for the chidamide group (25 mg/kg), 10 μL of 2 mg/mL the compound of Example 3-CMC-Na suspension per gram of body weight for the Example 3 group (20 mg/kg), and 10 μL of CMC-Na suspension containing 2.5 mg/ml chidamide and 2 mg/ml the compound of Example 3 per gram of body weight for the combination group were administered intragastrically. The longest diameter of tumor (length) and the widest diameter (width) perpendicular thereto were measured by vernier caliper every 2 days, and the tumor volume was calculated by the formula TS=length×(width)^2/2 and recorded. Each mouse was intragastrically administered once per day at regular time; after the last administration on the 17th day, the mice were sacrificed and the tumors of tumor-bearing mice were stripped and weighed with […].
The relative tumor inhibition rate of each administration group was calculated according to the following formula: Relative tumor inhibition rate=(average tumor volume of the vehicle control group−average tumor volume of the administration group)/average tumor volume of the vehicle control group×100%

CT-26 tumor [2] = test: as above; format: in vivo; conditions: method similar to Example 93
IDO in HeLa cell = biological target: T1, IDO in HeLa cell (Homo sapiens, UniProt P14902); test: Inhibition of IDO enzyme activity in HeLa cells by Chidamide in combination with IDO inhibitor; format: cell-based; conditions: IFN-γ, 48 hours
T1 construct: 50 ng/ml cytokine human IFN-γ and drugs with different concentrations; endogenous in cells; host or cells: HeLa cells stimulated with human IFN-γ
T1 sequence (P14902 whole entry): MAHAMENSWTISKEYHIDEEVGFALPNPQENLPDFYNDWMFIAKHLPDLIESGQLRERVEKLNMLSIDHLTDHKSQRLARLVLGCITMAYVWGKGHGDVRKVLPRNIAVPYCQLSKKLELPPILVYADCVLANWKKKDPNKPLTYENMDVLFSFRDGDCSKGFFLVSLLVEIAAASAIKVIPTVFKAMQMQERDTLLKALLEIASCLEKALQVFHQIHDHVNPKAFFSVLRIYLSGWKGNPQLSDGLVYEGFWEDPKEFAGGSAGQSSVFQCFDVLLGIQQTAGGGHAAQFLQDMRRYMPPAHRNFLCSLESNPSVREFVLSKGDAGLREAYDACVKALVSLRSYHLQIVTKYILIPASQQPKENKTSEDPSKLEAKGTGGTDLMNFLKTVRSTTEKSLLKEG
Protocol: HeLa cells were digested by trypsin, collected and counted, then inoculated in a 96-well cell culture plate at 2×10^4 cells per well and cultured at 5% CO2 and 37° C. After the cells were inoculated overnight, the medium was replaced with 200 μM L-tryptophan phenol red-free DMEM medium, and 50 ng/ml cytokine human IFN-γ and drugs with different concentrations (administered according to the group and final concentration shown in FIG. 1) were added simultaneously, the vehicle control (DMSO) and cytokine-free and L-tryptophan negative control wells were set at the same time, and triplicate wells were set. After 48 hours of drug treatment, 200 μL of the supernatant from culture well was pipetted out, added with 40 μL of pre-prepared 30% (w/v) trichloroacetic acid solution, reacted at 65° C. for 20 minutes, and then centrifuged at 12000 rpm for 15 minutes. 100 μL of the supernatant was pipetted out and added into a 96-well flat bottom plate, then equal volume of 2% p-dimethylaminobenzaldehyde in glacial acetic acid was added and mixed well, and stood at room temperature for 10 minutes. The absorbance value of each well at wavelength of 492 nm was read with microplate reader (ELX800NB). After subtracting the cell-free medium OD492-BLK as a blank control from the reading of each well, the OD492-T of each dosing well with subtraction of the detection background and the […] of drug-free positive control well were obtained.
The relative enzyme activity inhibition rate against IDO of each dosing well cell was calculated according to the following formula: enzyme activity inhibition rate against IDO=(OD492−T0−OD492−T)/OD492−T0×100%

[3] = biological target: T2, human indoleamine 2,3-dioxygenase 1 (hIDO1) (Homo sapiens, UniProt P14902); test: Inhibitory activity test at cellular level: IFN-γ-induced HeLa cells, kynurenine colour reaction; format: cell-based; conditions: 48 hours; for inhibition at 0.1 µM: 50 ng/ml human IFN-γ, 200 μM L-tryptophan, each test compound 100 nM, read-out: hIDO1-cell base inhibition rate (%); for pEC50: human IFN-γ, read-out: hIDO1-cell base EC50
T2 construct: up-regulate the expression of endogenous IDO1 under the induction of human IFN-γ; endogenous in cells; host or cells: HeLa cells stimulated with human IFN-γ
T2 sequence (P14902 whole entry): as above
Source text: The subject of this assay was to comprehensively evaluate different compounds on their enzymatic inhibitory activity in vitro and on cell models against human indoleamine 2,3-dioxygenase 1 (hIDO1).
In the present application, the inventors used Hela cells expressing IDO1 induced by IFN-γ as a model, to test the IDO1 inhibitory activity of the compounds at the cellular level.
HeLa cells are human cervical cancer cell lines, which can up-regulate the expression of endogenous IDO1 under the induction of human IFN-γ. By adding the substrate L-tryptophan to cell culture medium, the enzymatic catalysis product kynurenine in cell supernatant was detected. In this experiment, the cultured Hela cells were used and co-incubated with different concentrations of test compounds under stimulation of human IFN-γ for a specified period of time, and the color reaction method of enzyme product and p-dimethylaminobenzaldehyde was used to detect the effect on IDO enzyme activity of cells treated by the test compounds.
(1) Hela cells were inoculated into 96-well culture plates at an appropriate concentration (about 20,000 cells/well). […] The cells were continuously cultured for 48 hours before detection.
(2) 200 μL of the supernatant in the culture well was pipetted out, added with 40 μL of the pre-prepared 30% (w/v) trichloroacetic acid solution, and reacted at 65° C. for 20 minutes, and then centrifuged at 12000 rpm for 15 minutes.
(3) 100 μL of the supernatant after centrifugation was pipetted out, added into a 96-well flat bottom plate, then added with an equal volume of 2% p-dimethylaminobenzaldehyde in glacial acetic acid and mixed well, and stood at room temperature for 10 minutes.
(4) microplate reader (ELX800NB) was used to detect the absorbance value of each well, and the detection wavelength was 492 nm.
In addition, after the cell enzyme activity inhibition rates of test compounds with different concentration gradients were separately calculated, their cell enzyme activity half inhibition concentrations (EC50) were calculated by using EC50 calculator.
According to the above-mentioned experimental method, the compounds of the present application were subjected to IDO1 enzymatic evaluation at cytological level (the concentration of each test compound was all 100 nM).
According to the above-mentioned experimental method, the compound of the present application was subjected to hIDO1-cell base EC50 detection.

hERG potassium channel = biological target: T3, hERG potassium channel (Homo sapiens, UniProt Q12809); test: hERG inhibitory activity assay (patch clamp method), HEK293 cells stably expressing hERG; format: cell-based; conditions: whole-cell patch clamp, HEK293, 0.3-30 μM, room temperature; read-out: hERG inhibition EC50 value
T3 construct: expressed in transfected cells
T3 sequence (Q12809 whole entry): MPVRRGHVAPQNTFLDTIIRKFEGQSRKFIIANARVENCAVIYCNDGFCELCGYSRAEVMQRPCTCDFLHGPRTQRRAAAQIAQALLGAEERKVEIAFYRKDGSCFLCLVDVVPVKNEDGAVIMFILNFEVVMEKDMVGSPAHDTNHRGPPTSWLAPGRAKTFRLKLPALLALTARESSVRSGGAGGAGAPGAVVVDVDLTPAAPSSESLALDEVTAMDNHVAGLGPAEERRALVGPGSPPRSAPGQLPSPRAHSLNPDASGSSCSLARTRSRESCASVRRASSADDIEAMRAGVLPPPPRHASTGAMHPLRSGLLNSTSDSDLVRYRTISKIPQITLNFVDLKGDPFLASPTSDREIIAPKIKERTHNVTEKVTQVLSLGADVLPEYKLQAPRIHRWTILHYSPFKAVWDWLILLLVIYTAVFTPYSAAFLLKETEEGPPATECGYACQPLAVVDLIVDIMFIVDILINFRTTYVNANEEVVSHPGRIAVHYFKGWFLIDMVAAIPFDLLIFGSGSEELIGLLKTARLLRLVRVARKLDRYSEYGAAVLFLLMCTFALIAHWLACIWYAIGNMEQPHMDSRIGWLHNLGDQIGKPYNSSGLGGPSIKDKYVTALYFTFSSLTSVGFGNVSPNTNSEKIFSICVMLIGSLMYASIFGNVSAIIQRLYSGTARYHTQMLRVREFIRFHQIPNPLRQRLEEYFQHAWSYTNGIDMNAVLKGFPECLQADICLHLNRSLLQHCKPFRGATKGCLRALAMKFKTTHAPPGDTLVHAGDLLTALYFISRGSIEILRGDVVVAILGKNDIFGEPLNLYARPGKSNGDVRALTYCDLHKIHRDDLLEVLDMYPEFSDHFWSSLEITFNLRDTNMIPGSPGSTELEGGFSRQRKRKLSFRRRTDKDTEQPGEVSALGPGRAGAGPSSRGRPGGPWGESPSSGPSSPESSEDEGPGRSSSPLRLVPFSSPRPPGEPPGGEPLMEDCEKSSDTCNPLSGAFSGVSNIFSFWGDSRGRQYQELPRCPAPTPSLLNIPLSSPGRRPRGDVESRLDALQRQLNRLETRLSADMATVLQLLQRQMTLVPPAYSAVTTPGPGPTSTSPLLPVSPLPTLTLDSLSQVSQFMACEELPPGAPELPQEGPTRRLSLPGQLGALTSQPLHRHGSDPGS
Source text: Non-cardiac drugs may cause the prolongation of myocardial action potential duration by inhibiting the hERG (IKr) channel, increasing the possibility of life-threatening torsade de pointes (TdP) ventricular arrhythmia. In this experiment, HEK293 cell line without endogenous IKr current was used as host cell (this cell line was widely used in the detection of hERG) to evaluate the cardiotoxicity of Example 85 in patent CN108203438A and Example 87 of the present application.
(1) HEK293 cell line stably expressing hERG potassium channel was cultured in DMEM medium containing 10% fetal bovine serum and 0.8 mg/mL G418 under the condition of 37° C. and 5% CO2. […]
A capillary glass tube was drawn into a recording electrode with a microelectrode puller. […] Then, slow capacitance compensation was performed, and the membrane capacitance and series resistance were recorded. […]
When the hERG current of the whole-cell recording was stabilized, the drug was administered. […] The current detected for each cell in the compound-free extracellular fluid was used as its own control group. […]
[formula] and then the inhibition rate corresponding to each concentration was calculated
[formula] For each concentration, mean number and standard error were calculated, and the following equation was used to calculate the half inhibitory concentration of each compound: […]

[4] = Example 94, Table 8: chidamide and Example 20 alone and in combination
[5] = Example 95, Table 9: chidamide and Example 72 alone and in combination
[6] = Example 96, Table 10: chidamide and Example 87 alone and in combination
[7] = Example 89, Table 3: chidamide and Example 3 alone and in combination, concentrations per FIG. 1
[8] = Example 90, Table 4: chidamide and Example 20 alone and in combination, FIG. 2
[9] = Example 91, Table 5: chidamide and Example 72 alone and in combination, FIG. 3
[10] = Example 92, Table 6: chidamide and Example 87 alone and in combination, FIG. 4

SMILES | average tumor weight (CT-26 tumor [1]) [g] | Relative tumor inhibition rate (%) (CT-26 tumor [1]) | Relative tumor inhibition rate (%) (CT-26 tumor [2]; [4]) | Relative tumor inhibition rate (%) (CT-26 tumor [2]; [5]) | Relative tumor inhibition rate (%) (CT-26 tumor [2]; [6]) | Average inhibition rate (%) against IDO (IDO in HeLa cell; [7]) [%] | Average inhibition rate (%) against IDO (IDO in HeLa cell; [8]) [%] | Average inhibition rate (%) against IDO (IDO in HeLa cell; [9]) [%] | Average inhibition rate (%) against IDO (IDO in HeLa cell; [10]) [%] | inhibition at 0.1 µM [3] [%] | pEC50 [3] | pEC50 (hERG potassium channel)
Nc1cc(F)ccc1NC(=O)c1ccc(CNC(=O)/C=C/c2cccnc2)cc1 [Chidamide, reference compound] | 1.6 | 33% and 33.6% | 30 | 25.4 | 55 | 24 | 22 | 23 | 23 | – | – | –
O=C(Nc1ccc(Cl)cc1)N1CC2(CC(Oc3ccnc4ccc(F)cc34)C2)C1 [Example 3, N-(4-chlorophenyl)-6-((6-fluoroquinolin-4-yl)oxy)-2-aza-spiro[3.3]heptan-2-carboxamide] | 2.3 | 20% and 20.1% | – | – | – | 31 | – | – | – | 90 | 7.85 | –
O=C(Nc1ccc2c(c1)OCO2)N1CC2(CC(Oc3ccnc4ccc(F)cc34)C2)C1 [Example 20, N-(benzo[d][1,3]dioxol-5-yl)-6-((6-fluoroquinolin-4-yl)oxy)-2-aza-spiro[3.3]heptan-2-carboxamide] | – | – | 8.3 | – | – | – | 16 | – | – | 64 | 7.34 | –
CC(C(=O)Nc1ccc(Cl)cc1)N1CC2C(C1)C2Nc1ccnc2ccc(F)cc12 (centres unmarked) [Example 72, 2-(6-((6-fluoroquinolin-4-yl)amino)-3-aza-bicyclo[3.1.0]hexan-3-yl)-N-(4-chlorophenyl)propionamide] | – | – | – | 7.6 | – | – | – | 36 | – | 88 | 8.10 | –
O=C(CNc1ccc2c(c1)OCO2)N1CCC(C(O)CC2c3c(F)cccc3-c3cncn32)CC1 (centres unmarked) [Example 87, 2-(benzo[d][1,3]dioxol-5-yl-amino)-1-(4-(2-(6-fluoro-5H-imidazo[5,1-a)isoindol-5-yl)-1-hydroxyethyl)piperidin-1-yl)ethyl-1-one] | – | – | – | – | 45 | – | – | – | 20 | 23 | – | 5.34
